# Results taken from ChEMBL document CHEMBL1221165, “Actin is the primary cellular receptor of bistramide A” (Nat Chem Biol, 2005).
# The source made the active and inactive calls. No cut-off for these calls is given here.
# Key:
# [1] = test system: RBL-2H3; experiment: Induction of GFP-PKCdelta translocation from cytoplasm to nuclear in RBL2H3 cells at 200 nM over 30 mins by fluorescent imaging; assay type: functional, cell-based; settings: Rattus norvegicus
# [2] = test system: RBL-2H3; experiment: Induction of GFP-PKCdelta translocation from cytoplasm to plasma membrane in RBL2H3 cells at 200 nM over 30 mins by fluorescent imaging; assay type: functional, cell-based; settings: Rattus norvegicus
# [3] = target: T1, Protein kinase C delta type (Homo sapiens, UniProt Q05655); experiment: Induction of human recombinant PKCdelta assessed as phosphorylation of amphiphilic peptide substrate at 0.1 uM in presence of 10 uM phosphatidylserine relative to control
# Target sequence in this assay (Q05655 whole entry, looked up): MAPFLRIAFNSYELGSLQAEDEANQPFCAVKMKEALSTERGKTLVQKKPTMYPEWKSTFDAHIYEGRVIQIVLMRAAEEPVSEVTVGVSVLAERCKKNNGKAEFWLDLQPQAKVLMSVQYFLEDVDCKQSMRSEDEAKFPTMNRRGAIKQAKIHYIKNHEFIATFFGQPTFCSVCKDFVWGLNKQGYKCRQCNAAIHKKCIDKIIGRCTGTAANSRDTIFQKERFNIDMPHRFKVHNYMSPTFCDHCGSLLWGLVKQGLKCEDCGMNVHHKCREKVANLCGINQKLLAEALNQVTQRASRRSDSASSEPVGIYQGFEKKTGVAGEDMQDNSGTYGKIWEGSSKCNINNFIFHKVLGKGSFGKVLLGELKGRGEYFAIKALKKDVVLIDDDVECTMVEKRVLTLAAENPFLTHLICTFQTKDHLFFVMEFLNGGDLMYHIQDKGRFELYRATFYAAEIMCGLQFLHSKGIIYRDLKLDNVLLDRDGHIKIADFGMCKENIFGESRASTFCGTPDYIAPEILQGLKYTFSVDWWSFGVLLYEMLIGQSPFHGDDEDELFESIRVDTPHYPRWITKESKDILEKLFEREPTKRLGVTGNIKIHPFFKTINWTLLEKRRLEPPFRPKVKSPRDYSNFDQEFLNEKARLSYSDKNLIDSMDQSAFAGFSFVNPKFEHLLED
# [4] = target: T1, Protein kinase C delta type; experiment: Induction of human recombinant PKCdelta assessed as phosphorylation of amphiphilic peptide substrate at 1 uM in presence of 10 uM phosphatidylserine relative to control
# Target sequence in this assay (Q05655 whole entry, looked up): as above
# [5] = target: Protein kinase C delta type (Rattus norvegicus) (UniProt P09215); experiment: Induction of rat recombinant PKCdelta activity
# [6] = target: T1, Protein kinase C delta type; experiment: Displacement of [3H]PDBu from human recombinant PKCdelta by competitive binding assay
# Target sequence in this assay (Q05655 whole entry): as the sequence (Q05655 whole entry, looked up) above
# [7] = test system: RBL-2H3; experiment: Induction of GFP-PKCdelta translocation from cytoplasm to nuclear in RBL2H3 cells at 5 uM over 30 mins by fluorescent imaging; assay type: functional, cell-based; settings: Rattus norvegicus
# [8] = test system: MCF7; experiment: Cell cycle arrest in human MCF7 cells assessed as accumulation at G0/G1 phase at 1 uM after 48 hrs (Rbv = 74%); assay type: functional
# [9] = test system: MCF7; experiment: Cell cycle arrest in human MCF7 cells assessed as accumulation at G2/M phase at 1 uM after 48 hrs (Rbv = 7%); assay type: functional
# [10] = test system: PC-3; experiment: Cell cycle arrest in human PC3 cells assessed as accumulation at G1 phase at 1 uM after 48 hrs (Rbv = 58%); assay type: functional
# [11] = test system: PC-3; experiment: Cell cycle arrest in human PC3 cells assessed as accumulation at S phase at 1 uM after 48 hrs (Rbv = 18%); assay type: functional
# [12] = test system: PC-3; experiment: Cell cycle arrest in human PC3 cells assessed as accumulation at G2/M phase at 1 uM after 48 hrs (Rbv = 19%); assay type: functional
# [13] = test system: HL-60; experiment: Cell cycle arrest in human HL60 cells assessed as accumulation at G1 phase at 0.5 uM after 48 hrs (Rbv = 38%); assay type: functional
# [14] = test system: HL-60; experiment: Cell cycle arrest in human HL60 cells assessed as accumulation at S phase at 0.5 uM after 48 hrs (Rbv = 44%); assay type: functional
# [15] = test system: HL-60; experiment: Cell cycle arrest in human HL60 cells assessed as accumulation at G2/M phase at 0.5 uM after 48 hrs (Rbv = 11%); assay type: functional
# [16] = test system: MCF7; experiment: Cell cycle arrest in human MCF7 cells assessed as accumulation at G1 phase at 1 uM after 48 hrs (Rbv = 73%); assay type: functional
# [17] = test system: MCF7; experiment: Cell cycle arrest in human MCF7 cells assessed as accumulation at S phase at 1 uM after 48 hrs (Rbv = 18%); assay type: functional
# [18] = test system: CA46; experiment: Cell cycle arrest in human CA46 cells assessed as accumulation at G0/G1 phase at 1 uM after 48 hrs; assay type: functional, cell-based
# [19] = test system: CA46; experiment: Cell cycle arrest in human CA46 cells assessed as accumulation at G2/M phase at 1 uM after 48 hrs; assay type: functional, cell-based
# [20] = test system: CA46; experiment: Antiproliferative activity against human CA46 cells assessed as binucleated cells at 1 uM after 48 hrs by visual examination (Rbv = 6%); assay type: functional
# [21] = test system: CA46; experiment: Antiproliferative activity against human CA46 cells assessed as mitotic cells at 1 uM after 48 hrs by visual examination (Rbv = 3%); assay type: functional
# [22] = test system: A549; experiment: Dissolution of filamentous actin in human A549 cells after 1 hr by using FITC-phallodin staining by fluorescent microscopy; assay type: cell-based
# [23] = test system: A549; experiment: Dissolution of filamentous actin in human A549 cells at 50 to 150 nM by using FITC-phallodin staining by fluorescent microscopy; assay type: cell-based; settings: TDE = time-dependent effect
# [24] = test system: PC-3; experiment: Dissolution of filamentous actin in human PC3 cells at 20 nM within 15 mins by using FITC-phallodin staining by fluorescent microscopy; assay type: functional, cell-based
# [25] = test system: CHO-K1; experiment: Dissolution of filamentous actin in chinese hamster CHOK1 cells at 20 nM within 15 mins by using FITC-phallodin staining by fluorescent microscopy; assay type: cell-based; settings: Cricetulus griseus
# [26] = test system: PtK2; experiment: Dissolution of filamentous actin in […] PtK2 cells at 20 nM within 15 mins by using FITC-phallodin staining by fluorescent microscopy; assay type: cell-based
# [27] = test system: A549; experiment: Inhibition of globular actin polymerization at steady state in human A549 cells assessed as change in fluorescence intensity; assay type: cell-based
# [28] = test system: A549; experiment: Increase in dissolution of filamentous actin in human A549 cells at 120 to 450 nM by using FITC-phallodin staining by fluorescent microscopy; assay type: cell-based
# [29] = Depolymerization of Mg2+ filamentous actin in human A549 cells at 450 nM by using FITC-phallodin staining; assay type: cell-based
# [30] = Depolymerization of Ca2+ filamentous actin in human A549 cells at 450 nM by using FITC-phallodin staining; assay type: cell-based
# [31] = species on record: Oryctolagus cuniculus; experiment: (§1) Binding affinity to rabbit skeletal muscle monomeric actin by isothermal calorimetric method; assay type: tissue-based; settings: Muscle tissue
# [32] = Binding affinity to rabbit skeletal muscle globular actin by isothermal calorimetric method; assay type: tissue-based, Oryctolagus cuniculus, Muscle tissue
# [33] = test system: HL-60; experiment: Cytotoxicity against human HL60 cells assessed as growth inhibition after 48 hrs; assay type: functional; settings: HL-60, 48 h
# [34] = test system: HL-60; experiment: Cytotoxicity against human HL60 cells assessed as cell viability after 48 hrs; assay type: functional, cell-based; settings: HL-60, 48 h
# [35] = test system: A549; experiment: Cytotoxicity against human A549 cells assessed as growth inhibition after 48 hrs; assay type: functional; settings: A549, 48 h
# [36] = test system: A549; experiment: Cytotoxicity against human A549 cells assessed as cell viability after 48 hrs; assay type: functional, cell-based; settings: A549, 48 h
# [37] = test system: PC-3; experiment: Cytotoxicity against human PC3 cells assessed as growth inhibition after 48 hrs; assay type: functional; settings: PC-3, 48 h
# [38] = test system: PC-3; experiment: Cytotoxicity against human PC3 cells assessed as cell viability after 48 hrs; assay type: functional, cell-based; settings: PC-3, 48 h
# [39] = test system: HCT-116; experiment: Cytotoxicity against human HCT116 cells assessed as growth inhibition after 48 hrs; assay type: functional; settings: HCT-116, 48 h
# [40] = test system: HCT-116; experiment: Cytotoxicity against human HCT116 cells assessed as cell viability after 48 hrs; assay type: functional, cell-based; settings: HCT-116, 48 h
# [41] = as §1; assay type: tissue-based, Oryctolagus cuniculus, Muscle tissue
# [42] = Inhibition of actin polymerization
# Chain of Protein kinase C delta type (Rattus norvegicus) (P09215 whole entry): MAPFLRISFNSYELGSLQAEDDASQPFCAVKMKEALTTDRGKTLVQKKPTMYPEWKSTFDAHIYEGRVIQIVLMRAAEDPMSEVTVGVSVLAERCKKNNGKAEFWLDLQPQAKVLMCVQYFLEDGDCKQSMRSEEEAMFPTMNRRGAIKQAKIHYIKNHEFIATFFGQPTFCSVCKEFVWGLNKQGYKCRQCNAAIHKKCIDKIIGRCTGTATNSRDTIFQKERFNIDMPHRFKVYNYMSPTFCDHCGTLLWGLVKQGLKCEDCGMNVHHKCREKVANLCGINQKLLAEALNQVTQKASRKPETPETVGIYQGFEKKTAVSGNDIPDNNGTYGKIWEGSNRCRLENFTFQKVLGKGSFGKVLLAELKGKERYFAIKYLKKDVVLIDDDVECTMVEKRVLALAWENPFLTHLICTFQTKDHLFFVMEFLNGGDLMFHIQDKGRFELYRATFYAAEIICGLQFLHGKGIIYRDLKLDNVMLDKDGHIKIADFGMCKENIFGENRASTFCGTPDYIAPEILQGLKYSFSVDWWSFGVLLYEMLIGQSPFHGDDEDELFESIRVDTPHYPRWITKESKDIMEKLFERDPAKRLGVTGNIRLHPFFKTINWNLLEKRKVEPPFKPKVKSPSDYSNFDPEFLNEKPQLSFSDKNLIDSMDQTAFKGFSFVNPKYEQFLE
smiles,measurement,setting,value
CCC/C=C/C=C/C(=O)O[C@H]1/C(=C/C(=O)OC)C[C@H]2C[C@H]([C@@H](C)O)OC(=O)C[C@H](O)C[C@@H]3C[C@H](OC(C)=O)C(C)(C)[C@](O)(C[C@@H]4C/C(=C/C(=O)OC)C[C@H](/C=C/C(C)(C)[C@]1(O)O2)O4)O3,Activity,[1],Active
same,Activity,[2],Active
C/C=C/C(=O)C[C@H]1CC[C@H](C)[C@H](CC(=O)NC[C@H](O)[C@H](C)C(=O)NCCC[C@H]2O[C@@]3(CCC[C@H](CC[C@H](C)/C=C(\C)[C@H](C)O)O3)CC[C@@H]2C)O1 [BISTRAMIDE A],fold change (FC),[3],4.5
same,fold change (FC),[4],3.8
same,Activity,[5],inactive
same,Ki,[6],27 µM
same,Activity,[7],inactive
same,Activity,[8],33%
same,Activity,[9],38%
same,Activity,[10],37%
same,Activity,[11],14%
same,Activity,[12],43%
same,Activity,[13],18%
same,Activity,[14],48%
same,Activity,[15],27%
same,Activity,[16],33%
same,Activity,[17],24%
same,Activity,[18],Active
same,Activity,[19],Active
same,Activity,[20],48%
same,Activity,[21],4%
same,Activity,[22],Dose-dependent effect
same,Activity,[23],tde
same,Activity,[24],Active
same,Activity,[25],Active
same,Activity,[26],Active
same,inhibition,[27],Dose-dependent effect
same,Activity,[28],Active
same,Activity,[29],Active
same,Activity,[30],Active
same,Ka,[31],1.46 ×10⁸ /M
same,Kd,[32],0.007 µM
same,GI50,[33],0.2 µM
same,IC50,[34],> 1 µM
same,GI50,[35],0.013 µM
same,IC50,[36],0.063 µM
same,GI50,[37],0.005 µM
same,IC50,[38],0.107 µM
same,GI50,[39],0.2 µM
same,IC50,[40],0.437 µM
C/C1=C/C(=O)O[C@@H]2C[C@@H](CC[C@H](C)/C=C\C=C\CC1)O[C@@](O)([C@@H]1CSC(=O)N1)C2 [LATRUNCULIN A],Kd,[41],0.17 µM
same,Kd,[42],0.2 µM
